Four molecules from ChEMBL document CHEMBL1201862, “PubChem BioAssay data set” (2004) can be followed below.

One test deals with Fatty acid synthase (Homo sapiens, UniProt P49327). Nature of the test: FAS thioesterase domain inhibitors, dose response, biochemical, kinetic fluorescence intensity (AID 624326).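 Also: rate of fluorescence rise from hydrolysis of a fluorogenic O-methyl fluorescein ester substrate.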 In kind it is functional.
Another test has as its target Genome polyprotein (dengue virus type 2, UniProt P29990). Nature of the test: Dengue-2 NS5 methyltransferase inhibitors, primary screen, biochemical, confirmation dose response (AID 588689). It counts as functional.
In a further test the target is T1, Hexokinase HKDC1 (Homo sapiens, UniProt Q2TB90).
T1 sequence (Q2TB90 whole entry): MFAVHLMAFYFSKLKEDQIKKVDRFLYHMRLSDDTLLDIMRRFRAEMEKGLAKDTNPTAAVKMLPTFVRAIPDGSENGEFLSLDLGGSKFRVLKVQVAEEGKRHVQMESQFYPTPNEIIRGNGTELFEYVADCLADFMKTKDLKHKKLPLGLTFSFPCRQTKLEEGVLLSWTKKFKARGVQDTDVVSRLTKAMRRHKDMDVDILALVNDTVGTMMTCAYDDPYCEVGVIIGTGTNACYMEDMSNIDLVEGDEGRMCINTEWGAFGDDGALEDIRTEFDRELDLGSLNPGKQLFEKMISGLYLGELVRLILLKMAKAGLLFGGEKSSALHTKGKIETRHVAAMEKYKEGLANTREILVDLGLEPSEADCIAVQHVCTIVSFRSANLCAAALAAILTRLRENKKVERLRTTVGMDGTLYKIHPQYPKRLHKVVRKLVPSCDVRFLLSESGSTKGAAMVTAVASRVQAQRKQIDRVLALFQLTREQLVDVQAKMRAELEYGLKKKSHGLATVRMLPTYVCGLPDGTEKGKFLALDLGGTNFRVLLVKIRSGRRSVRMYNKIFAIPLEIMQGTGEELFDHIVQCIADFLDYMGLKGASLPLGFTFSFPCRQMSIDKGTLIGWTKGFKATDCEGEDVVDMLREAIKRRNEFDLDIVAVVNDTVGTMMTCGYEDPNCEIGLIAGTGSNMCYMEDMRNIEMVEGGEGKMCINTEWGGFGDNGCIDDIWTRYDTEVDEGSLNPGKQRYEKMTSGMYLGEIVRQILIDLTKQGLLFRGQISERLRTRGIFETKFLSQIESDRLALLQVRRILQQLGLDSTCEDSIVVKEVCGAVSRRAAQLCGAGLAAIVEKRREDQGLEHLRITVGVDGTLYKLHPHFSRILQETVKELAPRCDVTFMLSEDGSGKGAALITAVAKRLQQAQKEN
Nature of the test: HKDC1 hexokinase inhibitors, dose response, biochemical, W721R variant (AID 504729). In kind it is functional.

Another test deals with Large T antigen (Simian virus 40, UniProt P03070). In kind it is functional, Betapolyomavirus macacae.
In the next test the target is Ephrin type-A receptor 2 (Homo sapiens, UniProt P29317). In kind it is functional.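 Also: EPHA2 tested as one member of a kinome-wide kinase panel.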
Test [1] deals with Testis-specific serine/threonine-protein kinase 2 (Homo sapiens, UniProt Q96PF2). It counts as functional.
Sequence of Testis-specific serine/threonine-protein kinase 2 (Q96PF2 whole entry): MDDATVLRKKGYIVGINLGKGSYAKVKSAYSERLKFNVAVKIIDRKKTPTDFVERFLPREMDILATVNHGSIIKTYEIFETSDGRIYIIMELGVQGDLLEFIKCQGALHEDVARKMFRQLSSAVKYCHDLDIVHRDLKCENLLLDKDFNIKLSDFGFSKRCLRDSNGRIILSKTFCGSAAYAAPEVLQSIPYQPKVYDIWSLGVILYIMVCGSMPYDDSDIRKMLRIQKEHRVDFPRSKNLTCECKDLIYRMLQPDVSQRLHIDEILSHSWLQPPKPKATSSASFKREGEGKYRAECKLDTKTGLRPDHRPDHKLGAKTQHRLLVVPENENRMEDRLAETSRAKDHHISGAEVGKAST
For test [2], the target named is Calcium/calmodulin-dependent protein kinase type II subunit gamma (Homo sapiens, UniProt Q13555). It counts as functional.
Sequence of Calcium/calmodulin-dependent protein kinase type II subunit gamma (Q13555 whole entry): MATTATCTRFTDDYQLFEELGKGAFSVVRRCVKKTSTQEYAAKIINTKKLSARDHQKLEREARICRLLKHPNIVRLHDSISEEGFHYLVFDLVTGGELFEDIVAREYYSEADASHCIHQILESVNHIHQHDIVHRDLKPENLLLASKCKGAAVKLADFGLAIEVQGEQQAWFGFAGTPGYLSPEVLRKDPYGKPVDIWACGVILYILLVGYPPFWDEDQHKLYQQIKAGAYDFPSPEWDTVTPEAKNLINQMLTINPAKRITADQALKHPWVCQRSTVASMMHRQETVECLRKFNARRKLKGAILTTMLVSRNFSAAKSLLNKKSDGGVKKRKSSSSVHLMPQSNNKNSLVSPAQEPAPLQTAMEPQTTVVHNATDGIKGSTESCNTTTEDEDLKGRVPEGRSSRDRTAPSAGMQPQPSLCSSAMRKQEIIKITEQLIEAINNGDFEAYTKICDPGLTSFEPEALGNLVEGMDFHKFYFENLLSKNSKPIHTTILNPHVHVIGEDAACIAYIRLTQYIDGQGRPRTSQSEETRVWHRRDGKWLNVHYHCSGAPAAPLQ
Test [3] addresses Tyrosine-protein kinase Lyn (Homo sapiens, UniProt P07948). It counts as functional.
Test [4] has as its target Mitogen-activated protein kinase 1 (Homo sapiens, UniProt P28482). In kind it is functional.
Test [5] has as its target Eukaryotic elongation factor 2 kinase (Homo sapiens, UniProt O00418). It counts as functional.
Test [6] addresses Dual specificity tyrosine-phosphorylation-regulated kinase 4 (Homo sapiens, UniProt Q9NR20). It counts as functional.
Test [7] concerns the target Serine/threonine-protein kinase PAK 1 (Homo sapiens, UniProt Q13153). It counts as functional.
In test [8] the target is MAP kinase-activated protein kinase 3 (Homo sapiens, UniProt Q16644). It counts as functional.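 Also: value comes from a kinome-wide profiling panel in which MAPKAPK3 is one of the panel members.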
Sequence of MAP kinase-activated protein kinase 3 (Q16644 whole entry): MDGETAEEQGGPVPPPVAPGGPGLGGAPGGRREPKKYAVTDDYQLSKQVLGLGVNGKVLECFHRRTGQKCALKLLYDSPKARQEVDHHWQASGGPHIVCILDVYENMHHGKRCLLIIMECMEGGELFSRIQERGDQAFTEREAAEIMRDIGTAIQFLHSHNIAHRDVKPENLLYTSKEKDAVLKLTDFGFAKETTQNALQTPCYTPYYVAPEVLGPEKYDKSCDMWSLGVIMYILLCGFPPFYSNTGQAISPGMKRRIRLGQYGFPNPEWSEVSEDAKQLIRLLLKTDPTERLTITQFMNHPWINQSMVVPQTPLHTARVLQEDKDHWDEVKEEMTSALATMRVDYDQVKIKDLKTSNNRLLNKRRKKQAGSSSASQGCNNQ
A further test concerns the target Aurora kinase B (Homo sapiens, UniProt Q96GD4). It counts as functional.
For test [9], the target named is Serine/threonine-protein kinase Nek4 (Homo sapiens, UniProt P51957). It counts as functional.
Sequence of Serine/threonine-protein kinase Nek4 (P51957 whole entry): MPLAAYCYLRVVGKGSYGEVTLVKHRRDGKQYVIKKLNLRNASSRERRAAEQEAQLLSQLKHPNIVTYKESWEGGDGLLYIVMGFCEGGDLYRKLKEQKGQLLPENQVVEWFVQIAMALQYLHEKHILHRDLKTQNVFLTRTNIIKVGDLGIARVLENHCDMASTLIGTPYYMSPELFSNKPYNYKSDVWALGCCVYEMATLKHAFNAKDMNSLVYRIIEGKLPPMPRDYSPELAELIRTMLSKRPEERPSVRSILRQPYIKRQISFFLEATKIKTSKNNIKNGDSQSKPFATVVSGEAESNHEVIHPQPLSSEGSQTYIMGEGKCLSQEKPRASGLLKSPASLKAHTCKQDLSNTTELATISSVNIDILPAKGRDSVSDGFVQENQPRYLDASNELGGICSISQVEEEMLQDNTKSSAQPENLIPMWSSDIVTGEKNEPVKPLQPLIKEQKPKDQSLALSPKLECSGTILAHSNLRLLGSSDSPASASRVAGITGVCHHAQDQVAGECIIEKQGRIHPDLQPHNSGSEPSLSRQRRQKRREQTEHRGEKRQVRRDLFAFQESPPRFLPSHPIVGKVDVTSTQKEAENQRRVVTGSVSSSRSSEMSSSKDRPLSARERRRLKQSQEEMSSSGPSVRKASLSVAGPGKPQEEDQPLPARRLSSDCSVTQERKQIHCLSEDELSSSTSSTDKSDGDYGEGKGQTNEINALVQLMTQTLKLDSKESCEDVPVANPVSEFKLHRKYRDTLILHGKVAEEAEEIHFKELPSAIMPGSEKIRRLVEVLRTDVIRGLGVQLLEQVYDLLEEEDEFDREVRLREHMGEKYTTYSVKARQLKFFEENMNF
Test [10] deals with Casein kinase II subunit alpha (Homo sapiens, UniProt P68400). In kind it is functional.
In test [11] the target is Protein kinase C zeta type (Homo sapiens, UniProt Q05513). In kind it is functional.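 Also: measured as one member of a broad kinase profiling panel.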
Test [12] deals with Homeodomain-interacting protein kinase 2 (Homo sapiens, UniProt Q9H2X6). In kind it is functional.
For test [13], the target named is Protein kinase C delta type (Homo sapiens, UniProt Q05655). It counts as functional.
Sequence of Protein kinase C delta type (Q05655 whole entry): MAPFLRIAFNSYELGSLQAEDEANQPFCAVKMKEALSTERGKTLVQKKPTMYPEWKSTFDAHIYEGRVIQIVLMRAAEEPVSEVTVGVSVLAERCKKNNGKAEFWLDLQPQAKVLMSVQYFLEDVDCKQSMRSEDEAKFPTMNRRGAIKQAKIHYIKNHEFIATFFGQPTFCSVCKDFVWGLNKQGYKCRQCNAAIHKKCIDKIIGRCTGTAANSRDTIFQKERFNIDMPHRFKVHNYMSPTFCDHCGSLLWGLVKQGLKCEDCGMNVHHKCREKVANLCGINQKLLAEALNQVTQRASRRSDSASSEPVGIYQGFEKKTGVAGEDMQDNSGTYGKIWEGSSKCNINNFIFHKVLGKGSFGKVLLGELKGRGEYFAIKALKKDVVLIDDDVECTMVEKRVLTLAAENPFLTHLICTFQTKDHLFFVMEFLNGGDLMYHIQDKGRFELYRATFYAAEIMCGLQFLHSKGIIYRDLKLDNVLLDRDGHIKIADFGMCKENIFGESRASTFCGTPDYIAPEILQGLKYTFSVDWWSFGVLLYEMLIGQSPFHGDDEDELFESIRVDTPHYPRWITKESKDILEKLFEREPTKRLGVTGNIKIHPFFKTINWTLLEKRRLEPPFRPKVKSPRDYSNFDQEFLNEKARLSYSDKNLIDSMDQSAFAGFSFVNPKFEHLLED
For test [14], the target named is Receptor tyrosine-protein kinase erbB-4 (Homo sapiens, UniProt Q15303). In kind it is functional.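 Also: ERBB4 member of a kinome-wide kinase profiling panel.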
In test [15] the target is Cyclin-dependent kinase 1 (Homo sapiens, UniProt P06493). It counts as functional.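 Also: Kinome-wide panel profiling, with the target listed as panel member CDC2.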
Sequence of Cyclin-dependent kinase 1 (P06493 whole entry): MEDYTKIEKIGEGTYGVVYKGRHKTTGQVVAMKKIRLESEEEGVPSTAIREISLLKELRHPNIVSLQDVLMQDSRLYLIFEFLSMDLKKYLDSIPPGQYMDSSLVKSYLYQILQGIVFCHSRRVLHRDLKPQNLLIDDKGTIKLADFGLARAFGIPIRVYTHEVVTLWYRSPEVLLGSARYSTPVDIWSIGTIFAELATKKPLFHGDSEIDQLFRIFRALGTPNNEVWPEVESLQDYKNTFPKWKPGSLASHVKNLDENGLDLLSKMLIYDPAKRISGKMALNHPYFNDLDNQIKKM
Test [16] concerns the target Fibroblast growth factor receptor 1 (Homo sapiens, UniProt P11362). In kind it is functional.
Test [17] concerns the target Calcium/calmodulin-dependent protein kinase type II subunit delta (Homo sapiens, UniProt Q13557). It counts as functional.
For test [18], the target named is Tyrosine-protein kinase ABL1 (Homo sapiens, UniProt P00519). It counts as functional.
Test [19] addresses Proto-oncogene tyrosine-protein kinase ROS (Homo sapiens, UniProt P08922). In kind it is functional.
The target in test [20] is Ribosomal protein S6 kinase alpha-5 (Homo sapiens, UniProt O75582). It counts as functional.
Sequence of Ribosomal protein S6 kinase alpha-5 (O75582 whole entry): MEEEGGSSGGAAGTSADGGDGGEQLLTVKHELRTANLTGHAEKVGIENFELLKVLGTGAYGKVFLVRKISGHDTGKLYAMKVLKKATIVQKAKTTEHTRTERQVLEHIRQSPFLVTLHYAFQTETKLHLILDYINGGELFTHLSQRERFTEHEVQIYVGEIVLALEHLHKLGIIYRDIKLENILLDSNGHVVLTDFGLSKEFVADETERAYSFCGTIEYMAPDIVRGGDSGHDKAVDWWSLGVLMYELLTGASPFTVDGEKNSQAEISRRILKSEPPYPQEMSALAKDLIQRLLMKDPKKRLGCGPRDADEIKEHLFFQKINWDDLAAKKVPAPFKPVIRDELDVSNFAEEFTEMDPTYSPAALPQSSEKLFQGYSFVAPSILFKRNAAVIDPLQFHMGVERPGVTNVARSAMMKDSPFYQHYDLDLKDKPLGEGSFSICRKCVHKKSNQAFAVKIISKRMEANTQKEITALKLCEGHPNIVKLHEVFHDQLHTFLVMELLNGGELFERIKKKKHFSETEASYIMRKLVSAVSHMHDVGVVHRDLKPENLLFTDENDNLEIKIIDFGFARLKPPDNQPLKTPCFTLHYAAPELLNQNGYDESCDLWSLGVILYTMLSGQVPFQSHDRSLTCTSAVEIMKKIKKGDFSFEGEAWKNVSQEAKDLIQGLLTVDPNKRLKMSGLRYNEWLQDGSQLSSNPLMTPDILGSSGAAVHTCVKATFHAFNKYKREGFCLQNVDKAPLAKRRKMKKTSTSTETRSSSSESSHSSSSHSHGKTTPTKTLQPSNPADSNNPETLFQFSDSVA
Test [21] has as its target Tyrosine-protein kinase BTK (Homo sapiens, UniProt Q06187). In kind it is functional.
In test [22] the target is Interleukin-1 receptor-associated kinase 1 (Homo sapiens, UniProt P51617). In kind it is functional.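 Also: IRAK1 tested as one member of a kinome panel.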
The target of test [23] is Glycogen synthase kinase-3 alpha (Homo sapiens, UniProt P49840). In kind it is functional.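 Also: GSK3A result taken from a broad kinome-wide kinase panel.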
The target in test [24] is Tyrosine-protein kinase Fyn (Homo sapiens, UniProt P06241). It counts as functional.
Another test deals with INS1. As to the kind of experiment: beta cell apoptosis inhibitors, cytokine rescue, dose response, luminescence, retest (AID 449756).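 Also: cell death triggered by IL-1 beta plus TNF-alpha plus IFN-gamma mixture; protective hits raise ATP signal compared with cytokine alone wells.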 In kind it is functional, cell-based. The conditions noted are these: Rattus norvegicus.
Test [25] is described as follows: cytotoxicity toward DRD oncogenic fibroblasts, dose response, cell-based, non-viral oncogenic, luminescence (AID 1934). The conditions noted are these: Homo sapiens. In kind it is functional.
Test [26] in a line: growth suppression of PTEN-null colon cells, dose response, cell-based, HCT116 PTEN knockout (AID 1047).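 Also: HCT116 colon tumor cells with PTEN knocked out; cells exposed to compound for 60 hours before readout; potency for loss of cell viability measured by luminescence.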 In kind it is functional.
For a further test, the target named is Nonstructural protein 1 (Influenza A virus, UniProt Q194T2). It counts as functional, Influenza A virus (A/California/07/2009(H1N1)).
Sequence of Nonstructural protein 1 (Q194T2 whole entry): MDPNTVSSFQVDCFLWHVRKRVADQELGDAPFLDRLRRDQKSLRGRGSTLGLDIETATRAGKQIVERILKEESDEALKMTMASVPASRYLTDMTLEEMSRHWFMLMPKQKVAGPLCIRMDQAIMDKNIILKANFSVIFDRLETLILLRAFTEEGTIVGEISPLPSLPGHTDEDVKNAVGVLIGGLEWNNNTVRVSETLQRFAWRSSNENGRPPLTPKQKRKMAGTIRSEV

Structures are written as SMILES. Active and inactive are the calls of the source.

Sequence of Fibroblast growth factor receptor 1 (P11362 whole entry): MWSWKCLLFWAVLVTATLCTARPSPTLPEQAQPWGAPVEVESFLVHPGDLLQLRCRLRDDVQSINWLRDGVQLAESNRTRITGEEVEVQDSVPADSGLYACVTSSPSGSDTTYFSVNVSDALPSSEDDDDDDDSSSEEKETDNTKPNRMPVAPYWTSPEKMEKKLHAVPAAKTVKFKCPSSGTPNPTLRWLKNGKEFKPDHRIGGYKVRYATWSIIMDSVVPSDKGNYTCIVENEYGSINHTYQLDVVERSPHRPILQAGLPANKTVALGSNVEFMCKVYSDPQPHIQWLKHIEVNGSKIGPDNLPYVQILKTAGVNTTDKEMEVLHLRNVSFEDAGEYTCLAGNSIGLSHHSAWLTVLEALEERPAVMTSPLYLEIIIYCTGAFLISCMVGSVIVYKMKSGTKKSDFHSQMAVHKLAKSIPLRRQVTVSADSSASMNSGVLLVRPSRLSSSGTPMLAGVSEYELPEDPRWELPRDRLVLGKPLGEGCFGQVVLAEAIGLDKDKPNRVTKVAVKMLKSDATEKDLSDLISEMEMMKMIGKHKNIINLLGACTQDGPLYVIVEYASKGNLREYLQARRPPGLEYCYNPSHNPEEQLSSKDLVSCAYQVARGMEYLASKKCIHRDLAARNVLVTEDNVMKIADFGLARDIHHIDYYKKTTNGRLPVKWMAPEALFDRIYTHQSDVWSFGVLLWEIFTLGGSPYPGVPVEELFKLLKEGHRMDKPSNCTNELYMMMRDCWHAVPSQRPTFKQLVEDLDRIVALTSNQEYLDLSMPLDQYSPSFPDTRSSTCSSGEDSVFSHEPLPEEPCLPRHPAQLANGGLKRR

With `CC(=O)N(C1=C(Cl)C(=O)c2ccccc2C1=O)C1CCCCC1`, the IC50 at Fatty acid synthase was 4540 nM (active); at Genome polyprotein, 38300 nM (active); at Hexokinase HKDC1, 7150 nM (active).
As to `Oc1ccc(-c2cn3c(n2)SCC3)cc1O`, the IC50 at Large T antigen is 9740 nM (active).
Consider `O=C1Nc2ccc3ncsc3c2C1=CNc1ccc(S(=O)(=O)Nc2ccccn2)cc1`, for which the Ki was 794 nM (active) at Ephrin type-A receptor 2; > 1580 nM (inactive) in test [1]; 200 nM (active) in test [2]; 398 nM (active) in test [3]; 158 nM (active) in [4]; > 3980 nM (inactive) in test [5]. Besides, the Ki in [6] is 3160 nM (active); in [7], 2000 nM (active); in [8], 7940 nM (active); at Aurora kinase B it was 3.98 nM (active); in test [9], 501 nM (active); in test [10], 501 nM (active). Also, the Ki in test [11] was > 7940 nM (inactive); in test [12], 126 nM (active); in test [13], 1260 nM (active); in test [14] it was > 3980 nM (inactive); in [15] it was 20 nM (active); in test [16] it was 25.1 nM (active). In addition, the Ki in [17] is 79.4 nM (active); in test [18] it was > 631 nM (inactive); in test [19], > 2000 nM (inactive); in test [20], 794 nM (active); in test [21], 79.4 nM (active); in [22] it was 20 nM (active). The Ki in test [23] is 3.98 nM (active); in test [24], 200 nM (active).
Take `Cc1ccc(NC2=C/C(=N\S(=O)(=O)c3cccs3)c3ccccc3C2=O)c(C)c1`: the AC50 in the test with INS1 is 404 nM (active). Also, the EC50 in [25] is 5140 nM (active); in test [26], 1100 nM (active). For the same molecule, at Nonstructural protein 1, the IC50 is 6480 nM (active).

For orientation: IC50 means the concentration at which inhibition is half-maximal. A word on the Ki: it is a dissociation constant, usually derived from enzyme kinetics or from competition with a known ligand. In general, AC50 refers to the concentration giving half of the maximal activity seen. As usually defined, the EC50 is the concentration at which the effect is half-maximal.
